Columns and labels:
Assay type in all cases: in vivo
Puccinia triticina = experiment: Wheat brown rust (PUCCRT) disease control on wheat seedlings; conditions: low volume application, 125.1 g/H; for PUCCRT 1DP disease control rating, LV activity at 125.1 g/H: 1 day protectant; for PUCCRT 3DC disease control rating, LV activity at 125.1 g/H: 3 day curative
Cercospora beticola = experiment: Leaf spot of sugar beets (CERCBE) disease control; conditions: 100 ppm; 1 Day Protectant; sugar beet
Method: All fungicides were evaluated using the aforementioned method for their activity vs. all target diseases, unless stated otherwise. Wheat leaf blotch and brown rust activity were also evaluated using track spray applications, in which case the fungicides were formulated as EC formulations, containing 0.1% Trycol 5941 in the spray solutions. Wheat plants (variety Yuma) were grown from seed in a greenhouse in 50% mineral soil/50% soil-less Metro mix until the first leaf was fully emerged, with 7-10 seedlings per pot. These plants were inoculated with an aqueous spore suspension of Zymoseptoria tritici either prior to or after fungicide treatments. After inoculation the plants were kept in 100% relative humidity (one day in a dark dew chamber followed by two to three days in a lighted dew chamber at 20° C.) to permit spores to germinate and infect the leaf. The plants were then transferred to a greenhouse set at 20° C. for disease to develop. When disease symptoms were fully expressed on the 1st leaves of untreated plants, infection levels were assessed on a scale of 0 to 100 percent disease severity. Percent disease control was calculated using the ratio of disease severity on treated plants relative to untreated plants. Example F: Evaluation of Fungicidal Activity: Leaf Spot of Sugar Beets (Cercospora beticola; Bayer Code CERCBE) Sugar beet plants (variety HH88) were grown in soil-less Metro mix and trimmed regularly to maintain a uniform plant size prior to test. Plants were inoculated with a spore suspension 24 hr after fungicide treatments. Inoculated plants were kept in a dew chamber at 22° C. for 48 hr then incubated in a greenhouse set at 24° C. under a clear plastic hood with bottom ventilation until disease symptoms were fully expressed. Fungicide formulation, application and disease assessment on the sprayed leaves followed the procedures as described in the Example A.

Phakopsora pachyrhizi = experiment: Asian soybean rust (PHAKPA) disease control; conditions: 25 ppm; for PHAKPA disease control, 1DP: 1 Day Protectant; for PHAKPA disease control, 3DC: 3 Day Curative

SMILES | PUCCRT 1DP, LV activity at 125.1 g/H (% Control rating) (Puccinia triticina; 1 Day Protectant) | PUCCRT 3DC, LV activity at 125.1 g/H (% Control rating) (Puccinia triticina; 3 Day Curative) | CERCBE disease control, 1DP (Cercospora beticola) | PHAKPA disease control, 1DP (Phakopsora pachyrhizi) | PHAKPA disease control, 3DC (Phakopsora pachyrhizi) | PUCCRT 1DP disease control rating, LV activity at 125.1 g/H (Puccinia triticina) | PUCCRT 3DC disease control rating, LV activity at 125.1 g/H (Puccinia triticina) | LV activity at 125.1 g/H PUCCRT 1DP (disease control rating) (Puccinia triticina; 1 Day Protectant, wheat brown rust) | LV activity at 125.1 g/H PUCCRT 3DC (disease control rating) (Puccinia triticina; 3 Day Curative, wheat brown rust)
COc1ccnc(C(=O)N[C@@H](C)C(=O)O[C@@H](C)[C@H](Oc2ccccc2Cl)c2ccccc2)c1OC(C)=O [Cmpd 640] | A (> 80) | A (> 80) | A (> 80) | B (≤ 80) | B (≤ 80) | – | – | – | –
COc1ccnc(C(=O)N[C@@H](C)C(=O)O[C@@H](C)[C@H](Oc2cc(F)cc(Cl)c2)c2ccccc2)c1OC(C)=O [Cmpd 642] | A (> 80) | B (≤ 80) | A (> 80) | B (≤ 80) | B (≤ 80) | – | – | – | –
CCC(C)C(Oc1ccccc1)C(C)OC(=O)C(C)NC(=O)c1nccc(OC)c1OC(C)=O (centres unmarked) [Cmpd 691] | – | – | B (≤ 80) | A (> 80) | B (≤ 80) | A (> 80) | A (> 80) | – | –
CCC(C)C(Oc1ccccc1)C(C)OC(=O)C(C)NC(=O)c1nccc(OC)c1OCOC(C)=O (centres unmarked) [Cmpd 692] | – | – | A (> 80) | A (> 80) | B (≤ 80) | A (> 80) | A (> 80) | – | –
C=CC(C)C(Oc1ccccc1)C(C)OC(=O)C(C)NC(=O)c1nccc(OC)c1OCOC(C)=O (centres unmarked) [Cmpd 694] | – | – | A (> 80) | A (> 80) | B (≤ 80) | A (> 80) | A (> 80) | – | –
CCC[C@@H](Oc1ccccc1)[C@H](C)OC(=O)[C@H](C)NC(=O)c1nccc(OC)c1OCOC(C)=O [Cmpd 699] | – | – | A (> 80) | A (> 80) | B (≤ 80) | A (> 80) | A (> 80) | – | –
COc1ccnc(C(=O)N[C@@H](C)C(=O)O[C@@H](C)[C@@H](CC(C)C)Oc2ccccc2)c1OCOC(=O)C(C)C [Cmpd 1101] | – | – | A (> 80) | A (> 80) | A (> 80) | – | – | A (> 80) | A (> 80)

Source: patent US20180000085A1, “USE OF PICOLINAMIDE COMPOUNDS WITH FUNGICIDAL ACTIVITY” (DOW AGROSCIENCES LLC, priority 2014, published 2018)
